Assay results reported in ChEMBL document CHEMBL3045680, “Synthesis and Herbicidal Activity of 4-Thiazolone Derivatives and Their Effect on Plant Secretory Pathway” (J Pestic Sci, 2003).
Activity calls are given as the source filed them. No cut-off for these calls is given here.

Experiments:
[1] = system: Schoenoplectiella juncoides; assay: Pre-emergence herbicidal activity against Schoenoplectiella juncoides assessed as weed killing at 2 kg ai/ha measured 30 days after compound treatment under green house conditions; format: functional
Echinochloa oryzicola [2] = assay: Post-emergence herbicidal activity against Echinochloa oryzicola assessed as weed killing at 2 kg ai/ha measured 30 days after compound treatment under green house conditions; format: functional
Echinochloa oryzicola [3] = assay: Pre-emergence herbicidal activity against Echinochloa oryzicola assessed as weed killing at 2 kg ai/ha measured 30 days after compound treatment under green house conditions; format: functional
[4] = system: Schoenoplectiella juncoides; assay: Post-emergence herbicidal activity against Schoenoplectiella juncoides assessed as weed killing at 2 kg ai/ha measured 30 days after compound treatment under green house conditions; format: functional
Echinochloa oryzicola [5] = assay: Post-emergence herbicidal activity against Echinochloa oryzicola assessed as weed killing at 0.5 kg ai/ha measured 30 days after compound treatment under green house conditions; format: functional
Oryza sativa = assay: Post-emergence phytotoxicity against Oryza sativa (rice) plants exposed to compound applied on surface of water 7 days after transplantation assessed as plant killing at 0.5 kg ai/ha measured 3 weeks after compound treatment under green house conditions; format: organism-based; conditions: other, 504 h
Echinochloa oryzicola [6] = assay: Induction of plant secretory pathway perturbations in Echinochloa oryzicola seedlings exposed to 10 uM compound 3 days after sowing assessed as induction of cytological changes in root apical tip area measured after 4 to 8 hr days post compound treatment by electron microscopy; format: functional, organism-based
Pontederia vaginalis = assay: Herbicidal activity against Monochoria vaginalis assessed as compound application rate causing complete weed control measured 30 days after compound treatment under green house conditions; format: functional
Lindernia procumbens = assay: Herbicidal activity against Lindernia procumbens assessed as compound application rate causing complete weed control measured 30 days after compound treatment under green house conditions; format: functional
Echinochloa oryzicola [7] = assay: Induction of plant secretory pathway perturbations in Echinochloa oryzicola seedlings root tips area exposed to 10 uM compound 3 days after sowing assessed as induction of endoplasmic reticulum swellings measured after 4 hr days post compound treatment by electron microscopy; format: functional, organism-based
Echinochloa oryzicola [8] = assay: Herbicidal activity against Echinochloa oryzicola assessed as compound application rate causing complete weed control measured 30 days after compound treatment under green house conditions; format: functional
Echinochloa oryzicola [9] = assay: Induction of plant secretory pathway perturbations in Echinochloa oryzicola seedlings root tips area exposed to 10 uM compound 3 days after sowing assessed as induction of low electron dense area at membrane-cell wall interface measured after 4 hr days post compound treatment by electron microscopy; format: functional, organism-based
Echinochloa oryzicola [10] = assay: Induction of necrotic symptoms in root tip of Echinochloa oryzicola seedlings exposed to 10 uM compound measured after 24 to 72 hr days post compound treatment; format: functional, organism-based
Echinochloa oryzicola [11] = assay: Inhibition of root growth of Echinochloa oryzicola seedlings exposed to 10 uM compound immediately after sowing measured after 3 days post compound treatment; format: functional, organism-based
Echinochloa oryzicola [12] = assay: Induction of plant secretory pathway perturbations in Echinochloa oryzicola seedlings exposed to 10 uM compound 3 days after sowing assessed as induction of accumulation of dense vesicles around root tip golgi apparatus measured after 4 hr days post compound treatment by electron microscopy; format: functional, organism-based
Echinochloa oryzicola [13] = assay: Induction of plant secretory pathway perturbations in Echinochloa oryzicola seedlings exposed to 10 uM compound 3 days after sowing assessed as induction of morphological changes in root tip golgi apparatus measured after 4 hr days post compound treatment by electron microscopy; format: functional, organism-based
Echinochloa oryzicola [14] = assay: Inhibition of shoot growth of Echinochloa oryzicola seedlings exposed to 10 uM compound immediately after sowing measured after 2 days post compound treatment; format: functional, organism-based
Echinochloa oryzicola [15] = assay: Inhibition of root growth of Echinochloa oryzicola seedlings exposed to 10 uM compound 3 days after sowing measured after 24 to 72 hr days post compound treatment; format: functional, organism-based
Rotala indica = assay: Herbicidal activity against Rotala indica assessed as compound application rate causing complete weed control measured 30 days after compound treatment under green house conditions; format: functional
Echinochloa oryzicola [16] = assay: Inhibition of shoot growth of Echinochloa oryzicola seedlings exposed to 10 uM compound 3 days after sowing measured after 24 to 72 hr days post compound treatment; format: functional, organism-based
Echinochloa oryzicola [17] = assay: (§1) Induction of plant secretory pathway perturbations in Echinochloa oryzicola seedlings root tips area exposed to 10 uM compound 3 days after sowing assessed as induction of vesicles accumulation at plasma membrane-cell wall interface measured after 8 hr days post compound treatment by electron microscopy; format: functional, organism-based
[18] = system: Schoenoplectiella juncoides; assay: Herbicidal activity against Schoenoplectiella juncoides assessed as compound application rate causing complete weed control measured 30 days after compound treatment under green house conditions; format: functional
Echinochloa oryzicola [19] = assay: as §1, with “4” for “8”; format: functional, organism-based
Cyperus serotinus = assay: Herbicidal activity against Cyperus serotinus assessed as compound application rate causing complete weed control measured 30 days after compound treatment under green house conditions; format: functional
Echinochloa oryzicola [20] = assay: Induction of plant secretory pathway perturbations in Echinochloa oryzicola seedlings root tips area exposed to 10 uM compound 3 days after sowing assessed as induction of curved cell wall membrane-cell wall interface measured after 4 hr days post compound treatment by electron microscopy; format: functional, organism-based
Echinochloa oryzicola [21] = assay: Induction of plant secretory pathway perturbations in Echinochloa oryzicola seedlings root tips area exposed to 10 uM compound 3 days after sowing assessed as induction of obscuring of cell wall measured after 4 hr days post compound treatment by electron microscopy; format: functional, organism-based
Echinochloa oryzicola [22] = assay: Induction of plant secretory pathway perturbations in Echinochloa oryzicola seedlings root tips area exposed to 10 uM compound 3 days after sowing assessed as induction of curved cell wall membrane-cell wall interface measured after 8 hr days post compound treatment by electron microscopy; format: functional, organism-based

`CCN(C1=NC(=O)C(C)(C)S1)c1ccccc1` gave an Activity [1] of 80%, an Activity (Echinochloa oryzicola [2]) of 60% and an Activity (Echinochloa oryzicola [3]) of 80%. For the same compound, the Activity [4] was 20%.
For `CC1COc2ccccc2N1C1=NC(=O)C(C)(C)S1` (stereo not given), the Activity [1] was 100%, the Activity (Echinochloa oryzicola [5]) was 60% and the Activity (Oryza sativa) was 20%. It also gave an Activity (Echinochloa oryzicola [2]) of 100%, an Activity (Echinochloa oryzicola [3]) of 100% and an Activity [4] of 80%.
`CC1SC(N(C)c2ccccc2)=NC1=O` (stereo not given) gave an Activity [1] of 20%, an Activity (Echinochloa oryzicola [2]) of 20% and an Activity (Echinochloa oryzicola [3]) of 20%. It also gave an Activity [4] of 20%.
For `CN(C1=NC(=O)C(C)(C)S1)c1ccccc1`, the Activity [1] was 80%, the Activity (Echinochloa oryzicola [2]) was 80% and the Activity (Echinochloa oryzicola [3]) was 90%. For the same compound, the Activity [4] was 60%.
`CC1(C)SC(N2CCCc3ccccc32)=NC1=O` showed an Activity [1] of 90%, an Activity (Echinochloa oryzicola [2]) of 90% and an Activity (Echinochloa oryzicola [3]) of 90%. For the same compound, the Activity [4] was 60%.
Compound `CC1(C)SC(Nc2ccccc2)=NC1=O` has an Activity [1] of 80%, an Activity (Echinochloa oryzicola [2]) of 60% and an Activity (Echinochloa oryzicola [3]) of 80%. For the same compound, the Activity [4] was 60%.
`CCC1(CCl)SC(N2c3ccccc3OCC2C)=NC1=O` (stereo not given) showed an Activity (Echinochloa oryzicola [5]) of 50%, an Activity (Oryza sativa) of 20% and an Activity (Echinochloa oryzicola [2]) of 100%.
Work on `CN(C1=NC(=O)C(C)(CCCl)S1)c1ccccc1` (stereo not given) yielded an Activity [1] of 90%, an Activity (Echinochloa oryzicola [2]) of 100% and an Activity (Echinochloa oryzicola [3]) of 80%. For the same compound, the Activity [4] was 80%.
`CCN(CC)C(=O)n1cnc(S(=O)(=O)c2c(C)cc(C)cc2C)n1` [CAFENSTROLE] gave an Activity (Echinochloa oryzicola [5]) of 80% and an Activity (Oryza sativa) of 20%.
`CCCCN(C)C1=NC(=O)C(C)(C)S1` gave an Activity [1] of 0%, an Activity (Echinochloa oryzicola [2]) of 0% and an Activity (Echinochloa oryzicola [3]) of 0%. It also gave an Activity [4] of 0%.
For `CC1(C)SC(N2CCc3ccccc32)=NC1=O`, the Activity [1] was 80%, the Activity (Echinochloa oryzicola [2]) was 80% and the Activity (Echinochloa oryzicola [3]) was 80%. For the same compound, the Activity [4] was 20%.
`CC1CCc2ccccc2N1C1=NC(=O)C(C)(C)S1` (stereo not given) showed an Activity [1] of 90%, an Activity (Echinochloa oryzicola [2]) of 90% and an Activity (Echinochloa oryzicola [3]) of 90%. It also gave an Activity [4] of 80%.
In the case of `CN(Cc1ccccc1)C1=NC(=O)C(C)(C)S1`, the Activity [1] was 40%, the Activity (Echinochloa oryzicola [2]) was 0% and the Activity (Echinochloa oryzicola [3]) was 20%. It also gave an Activity [4] of 0%.
In the case of `CCC1(C)SC(N2c3ccccc3OCC2C)=NC1=O` (stereo not given), the Activity (Echinochloa oryzicola [5]) was 60%, the Activity (Oryza sativa) was 0% and the Activity (Echinochloa oryzicola [2]) was 100%.
`CC1(C)SC(N2CCOc3ccccc32)=NC1=O` gave an Activity [1] of 80%, an Activity (Echinochloa oryzicola [2]) of 90% and an Activity (Echinochloa oryzicola [3]) of 90%. For the same compound, the Activity [4] was 40%.
`CC1COc2ccccc2N1C1=NC(=O)C(C)(CCCl)S1` (stereo not given) was tested, and the Activity (Echinochloa oryzicola [5]) was 70%, the Activity (Oryza sativa) was 0% and the Activity (Echinochloa oryzicola [6]) was “Active”. For the same compound, the Activity (Pontederia vaginalis) was 0.25 KgAi/ha, the Activity (Lindernia procumbens) was 0.25 KgAi/ha and the Activity (Echinochloa oryzicola [7]) was “Active”. The Activity (Echinochloa oryzicola [2]) was 80%, the Activity (Echinochloa oryzicola [8]) was 0.25 KgAi/ha and the Activity (Echinochloa oryzicola [9]) was “Active”. The Activity (Echinochloa oryzicola [10]) was “Active”, the “growth inhibition (GI)” value (Echinochloa oryzicola [11]) was “Active” and the Activity (Echinochloa oryzicola [12]) was “Active”. For the same compound, the Activity (Echinochloa oryzicola [13]) was “Active”, the “growth inhibition (GI)” value (Echinochloa oryzicola [14]) was “Active” and the “growth inhibition (GI)” value (Echinochloa oryzicola [15]) was “Active”. The Activity (Rotala indica) was 0.25 KgAi/ha, the “growth inhibition (GI)” value (Echinochloa oryzicola [16]) was “inactive” and the Activity (Echinochloa oryzicola [17]) was “Active”. For the same compound, the Activity [18] was 0.25 KgAi/ha, the Activity (Echinochloa oryzicola [19]) was “Active” and the Activity (Cyperus serotinus) was 0.25 KgAi/ha. For the same compound, the Activity (Echinochloa oryzicola [20]) was “Active”, the Activity (Echinochloa oryzicola [21]) was “Active” and the Activity (Echinochloa oryzicola [22]) was “Active”.
With `CCC1(CC)SC(N2c3ccccc3OCC2C)=NC1=O` (stereo not given) the Activity (Echinochloa oryzicola [5]) was 70%, the Activity (Oryza sativa) was 0% and the Activity (Echinochloa oryzicola [2]) was 100%.
Work on `CCCC1(C)SC(N(C)c2ccccc2)=NC1=O` (stereo not given) yielded an Activity [1] of 80%, an Activity (Echinochloa oryzicola [2]) of 70% and an Activity (Echinochloa oryzicola [3]) of 80%. For the same compound, the Activity [4] was 20%.
`CCC1(CCCl)SC(N2c3ccccc3OCC2C)=NC1=O` (stereo not given) was tested, and the Activity (Echinochloa oryzicola [5]) was 60%, the Activity (Oryza sativa) was 0% and the Activity (Echinochloa oryzicola [2]) was 100%.
With `CN(C1=NC(=O)CS1)c1ccccc1` the Activity [1] was 0%, the Activity (Echinochloa oryzicola [2]) was 0% and the Activity (Echinochloa oryzicola [3]) was 0%. The Activity [4] was 0%.
For `CCC1(C)SC(N(C)c2ccccc2)=NC1=O` (stereo not given), the Activity [1] was 90%, the Activity (Echinochloa oryzicola [2]) was 80% and the Activity (Echinochloa oryzicola [3]) was 80%. It also gave an Activity [4] of 40%.
